# Test results from patent publication US5817756A, “Pseudo- and non-peptide bradykinin receptor antagonists” (Scios Inc., priority 1995, dated 1998).
# Starred links: 1 amine or outer side, 2 acyl side, 3 side chain; linkers in the order of their positions; H or OH if unused. Non-standard residues stand in square brackets, D forms with d. Residues, ends and D or L forms follow the SMILES beside them. Oic = O=C(O)[C@@H]1C[C@@H]2CCCC[C@@H]2N1; X10 = O=C(C(/C=C/CN[*:1])Cc1ccccc1)[*:2]; X5 = O=C(/C=C/c1cccc(CN[*:1])c1)[*:2]; X11 = O=C(/C=C/C1CCCCC1CN[*:1])[*:2]; X13 = O=C(CCc1cccc(CN[*:1])c1)[*:2]; X2 = O=C(/C=C/c1ccccc1CN[*:1])[*:2]; Hyp = O=C(O)[C@@H]1C[C@@H](O)CN1; X8 = O=C(CCc1ccccc1CN[*:1])[*:2]; dTic = O=C(O)[C@H]1Cc2ccccc2CN1
# Target: T1, human bradykinin B2 receptor (Homo sapiens, UniProt P30411)
# T1 construct: The HindIII/XbaI fragment of one full-length clone, 126A, was inserted into pcDNAI neo vector; expressed in transfected cells
# T1 sequence (P30411 1-391): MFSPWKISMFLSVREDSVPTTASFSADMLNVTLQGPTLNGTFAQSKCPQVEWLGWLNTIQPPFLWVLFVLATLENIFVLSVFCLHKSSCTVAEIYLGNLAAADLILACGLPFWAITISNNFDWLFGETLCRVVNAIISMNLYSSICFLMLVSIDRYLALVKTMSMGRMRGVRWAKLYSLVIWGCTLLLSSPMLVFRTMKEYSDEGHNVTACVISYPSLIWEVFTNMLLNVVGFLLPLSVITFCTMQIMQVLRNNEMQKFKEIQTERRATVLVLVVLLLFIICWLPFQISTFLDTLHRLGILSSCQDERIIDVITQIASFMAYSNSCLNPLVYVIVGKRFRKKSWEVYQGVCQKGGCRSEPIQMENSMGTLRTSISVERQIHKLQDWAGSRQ
# Test: Radioligand binding, H2O.2 cell membranes, 3H-NPC17731
# Conditions: Table 1; 3H-NPC17731; read-out: Radioligand Binding Human 3H17731
# Description: A human bradykinin B2 receptor was expressed in CHO/K cells. Briefly, approximately 2×10^6 plaques from a human uterus λgt10 cDNA library (Clontech Laboratories; Palo Alto, Calif.) were screened using a PCR fragment containing the coding region of the rat B2 receptor. This probe was generated by random-primed synthesis in the presence of α[^32 P]dATP. Duplicate filters were hybridized overnight at 42° C. in 1M NaCl, 50 mM Tris pH 7.5, 5× Denhardt's, 200 μg/ml salmon sperm DNA, 1% SDS, and 20% formamide. The filters were washed at 65° C. in 1× SSC and 1% SDS. Coincident positively hybridizing plaques were purified and rescreened with the same probe and stringency conditions. EcoRI fragments of positive clones were inserted into Bluescript/KS II+vector (Stratagene; La Jolla, Calif.) for sequence determination.
# The nucleotide sequence of the cloned human B2 receptors was determined using double-stranded DNA and the dideoxy chain termination method. Commercially available T3 and T7 oligonucleotides (USB; Cleveland, Ohio) and synthetic 21-mer oligonucleotides (DNA/RNA Synthesizer; applied Biosystems Inc.; Palo Alto, Calif.) from both the known rat sequence and the determined human sequence were used to identify the nucleotide sequence from the 5' untranslated end to the BglII site in the 3' untranslated end of the clone.
# CHO/K cells were plated in 2 ml of growth medium (Ham's F12 with 10% FBS) per 6 well plate and incubated at 37° C., 5% CO2 until they were 60% confluent. For each well, 4, 12, and 16 μg of DNA was diluted in 100 μl Opti-MEM I reduced serum medium (Gibco/BRL; Gaithersburg, Md.). 12 μl of TransfectASE reagent (Gibco/BRL) was diluted in a separate aliquot of 100 μl Opti-MEM I. The DNA and TransfecASE solutions were combined, mixed gently, and incubated at 25° C. for 15 minutes. This solution was then diluted to 1 ml with Opti-MEM I. Each well was washed twice with Opti-MEM I and 1 ml of the DNA/TransfectAse complex was added to each well. After a 5 hour incubation at 37° C. and 5% CO2, 1 ml of Ham's F12 with 20% FBS was added to each well and cells were incubated overnight. Media was replaced with growth medium and incubated for additional 24 hours.
# This assay measures the ability of a bradykinin antagonist compound to compete for binding to the human B2 receptor with tritiated bradykinin or tritiated NPC17731, a bradykinin analog which is known to bind the B2 receptor and act as a bradykinin antagonist.
# H2O.2 cells were grown to confluency in Ham's F12 media containing 10% FBS and 500 μg/ml Geneticin. Growth media was aspirated and the monolayer washed once with Dulbecco's PBS without Ca^++ and Mg^++. Cells were scraped in Dulbecco's PBS and centrifuged at 2,000×g for 10 minutes. Pellets were resuspended in 25 mM TES, 1 mM 1,10-phenanthroline pH 6.8 buffer and homogenized using a Ploytron at setting 5 for 10 seconds. An aliquot was taken for a protein determination using a BioRad protein assay kit. Membranes were centrifuged at 48,000×g for 10 minutes at 4° C. Pellets were resuspended in the TES buffer with 0.1% BSA and 0.014% bacitracin. 0.5 ml aliquots were frozen in liquid N2 and stored at -80° C. for up to 2 weeks.
# Membranes from H2O.2 cells previously prepared were thawed at 37° C. and diluted in 25 mM TES, […] 1,10-phenanthroline pH 6.8 containing BSA and bactiracin. […] Non-specific binding was determined with 1 μM bradykinin. The tubes were incubated 90 minutes at 25° C. and the assay was terminated by rapid vacuum filtration onto Whatman GF/B filters presoaked with 0.2% PEI for 3 hours followed by 2×3 ml aliquots of ice-cold 50 mM Tris, pH 7.4. Radioactivity was counted with a Beckman scintillation counter.
row,Structure (SMILES),Ki
1,N=C(N)NCCC[C@@H](N)C(=O)N[C@@H](CCCNC(=N)N)C(=O)NCc1ccccc1/C=C/C(=O)N[C@@H](CO)C(=O)N1Cc2ccccc2C[C@@H]1C(=O)N1[C@H](C(=O)N[C@@H](CCCNC(=N)N)C(=O)O)C[C@@H]2CCCC[C@@H]21 (H-[dR]R[X2]S[dTic][Oic]R-OH),27 nM

# Target: T2, bradykinin receptor, guinea pig terminal ileum homogenate (Cavia porcellus, UniProt O70526)
# T2 construct: from tissue; host or cells: terminal ileum of male Hartley guinea pigs, washed membrane homogenate
# T2 sequence (O70526 1-372): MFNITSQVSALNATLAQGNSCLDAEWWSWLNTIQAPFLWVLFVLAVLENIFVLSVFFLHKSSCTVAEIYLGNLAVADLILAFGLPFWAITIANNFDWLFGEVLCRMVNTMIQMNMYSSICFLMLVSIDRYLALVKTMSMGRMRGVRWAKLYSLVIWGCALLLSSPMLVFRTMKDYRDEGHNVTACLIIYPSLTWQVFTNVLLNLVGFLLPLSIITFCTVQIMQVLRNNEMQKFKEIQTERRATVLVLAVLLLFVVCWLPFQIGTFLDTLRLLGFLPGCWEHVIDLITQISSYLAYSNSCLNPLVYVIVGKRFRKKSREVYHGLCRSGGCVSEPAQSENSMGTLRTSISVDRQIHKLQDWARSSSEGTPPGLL
# Test: Guinea pig ileum binding of 3H-bradykinin
# Conditions: Table 1, read-out: Radioligand Binding Guinea Pig
# Description: Binding of ^3 H-bradykinin was performed using the method of D. C. Manning, R. Vavrek, J. M. Stewart, and S. H. Snyder, J. Pharmacol. Exp. Ther., (1986) 237:504. The tissues used in the binding assay were terminal ileum from male Hartley guinea pigs (150-350 g). After dissection, tissues were placed in 20 volume of ice-cold buffer A (25 mM TES containing 0.2 g/l of 1,10-phenanthroline adjusted of pH 6.8 with ammonium hydroxide) and homogenized using a Polytron Tissumizer at setting 6 for 15 seconds. The homogenate was centrifuged at 50,000×g for 10 minutes, the supernatant discarded, and the pellet resuspended in ice-cold buffer A by homogenization with the Polytron. Each tissue was homogenized and centrifuged three times. The final pellet was resuspended in buffer A containing bovine serum albumin (1 g/l) and Bacitracin (0.14 g/l) to a final volume of 170 ml/g of the original tissue weight. The binding assay consisted of […] in 12×75 mm polypropylene tubes: 50 μl ^3 H-bradykinin (20,000 dpm, ~0.3 nM in the final assay volume), 100 μl displacing drug in buffer A, and 750 μl tissue homogenate. Each tray contained tubes, to which no drug was added to measure maximum binding and tubes to which bradykinin (1 μM final concentration) had been added, to measure […]. Specific binding accounted for 96-98% total binding. Tubes were incubated for 90 minutes at ambient temperature. The assays were terminated by filtration over Whatman GF/B glass fiber filters that had been pretreated for 2 hours with polyethyleneimine (2 g/l) using a Brandel Tissue Harvester, followed by washing with 4×1 ml aliquots of ice-cold 50 mM Tris, pH 7.4. Filters were dissolved in Ready-Safe Fluor (Beckman) for at least 90 minutes before quantitation by liquid scintillation spectrometry. Kd values were determined using saturation binding and analysis by EBDA (G. A. MacPherson, J. Pharmacol. Methods (1985) 213), followed by LIGAND (P. J. Munson, D. Rodbard, Anal. Biochem. (1980) 220). Ki values were determined using competitive analysis followed by EBDA and LIGAND.
row,Structure (SMILES),Ki
1,N=C(N)NCCC[C@@H](N)C(=O)N[C@@H](CCCNC(=N)N)C(=O)NCc1cccc(CCC(=O)N[C@@H](CO)C(=O)N2Cc3ccccc3C[C@@H]2C(=O)N2[C@H](C(=O)N[C@@H](CCCNC(=N)N)C(=O)O)C[C@@H]3CCCC[C@@H]32)c1 (H-[dR]R[X13]S[dTic][Oic]R-OH),466 nM
2,N=C(N)NCCC[C@@H](N)C(=O)N[C@@H](CCCNC(=N)N)C(=O)NCc1ccccc1CCC(=O)N[C@@H](CO)C(=O)N1Cc2ccccc2C[C@@H]1C(=O)N1[C@H](C(=O)N[C@@H](CCCNC(=N)N)C(=O)O)C[C@@H]2CCCC[C@@H]21 (H-[dR]R[X8]S[dTic][Oic]R-OH),563 nM
3,C[C@H](NC(=O)/C=C/c1ccccc1CNC(=O)[C@H](CCCNC(=N)N)NC(=O)[C@H](N)CCCNC(=N)N)C(=O)N1Cc2ccccc2C[C@@H]1C(=O)N1[C@H](C(=O)N[C@@H](CCCNC(=N)N)C(=O)O)C[C@@H]2CCCC[C@@H]21 (H-[dR]R[X2]A[dTic][Oic]R-OH),278 nM
4,N=C(N)NCCC[C@@H](N)C(=O)N[C@@H](CCCNC(=N)N)C(=O)N1CCC[C@H]1C(=O)N1C[C@H](O)C[C@H]1C(=O)NC/C=C/C(Cc1ccccc1)C(=O)N[C@@H](CO)C(=O)N1Cc2ccccc2C[C@@H]1C(=O)N1[C@H](C(=O)N[C@@H](CCCNC(=N)N)C(=O)O)C[C@@H]2CCCC[C@@H]21 (some centres unmarked) (H-[dR]RP[Hyp][X10]S[dTic][Oic]R-OH),358 nM
5,N=C(N)NCCC[C@@H](N)C(=O)N[C@@H](CCCNC(=N)N)C(=O)NCc1cccc(/C=C/C(=O)N[C@@H](CO)C(=O)N2Cc3ccccc3C[C@@H]2C(=O)N2[C@H](C(=O)N[C@@H](CCCNC(=N)N)C(=O)O)C[C@@H]3CCCC[C@@H]32)c1 (H-[dR]R[X5]S[dTic][Oic]R-OH),496 nM
6,N=C(N)NCCC[C@@H](N)C(=O)N[C@@H](CCCNC(=N)N)C(=O)NCC1CCCCC1/C=C/C(=O)N[C@@H](CO)C(=O)N1Cc2ccccc2C[C@@H]1C(=O)N1[C@H](C(=O)N[C@@H](CCCNC(=N)N)C(=O)O)C[C@@H]2CCCC[C@@H]21 (some centres unmarked) (H-[dR]R[X11]S[dTic][Oic]R-OH),638 nM
7,N=C(N)NCCC[C@@H](N)C(=O)N[C@@H](CCCNC(=N)N)C(=O)NCc1ccccc1/C=C/C(=O)N[C@@H](CO)C(=O)N1Cc2ccccc2C[C@@H]1C(=O)N1[C@H](C(=O)N[C@@H](CCCNC(=N)N)C(=O)O)C[C@@H]2CCCC[C@@H]21 (H-[dR]R[X2]S[dTic][Oic]R-OH),120 ± 8 nM
8,N=C(N)NCCC[C@@H](N)C(=O)N[C@@H](CCCNC(=N)N)C(=O)NCc1ccccc1/C=C/C(=O)N[C@@H](Cc1ccccc1)C(=O)N[C@@H](CO)C(=O)N1Cc2ccccc2C[C@@H]1C(=O)N1[C@H](C(=O)N[C@@H](CCCNC(=N)N)C(=O)O)C[C@@H]2CCCC[C@@H]21 (H-[dR]R[X2]FS[dTic][Oic]R-OH),1270 nM

# System: bradykinin-induced contraction of guinea pig ileum longitudinal muscle
# Test: Guinea pig ileum contraction assay
# Type: cell-based
# Conditions: Schild analysis against bradykinin
# Description: Guinea pig intestine was removed and placed in a Petri dish containing Tyrodes solution and cut into 3-4 cm segments.
# After equilibration of the tissues, appropriate volumes of bradykinin solutions were cumulatively added to the 10 ml tissue baths to increase the concentration of bradykinin in the bath step-by-step without washing out after each single dose. Higher concentrations were added only after the preceding contraction had reached a steady value. […] Antagonism of bradykinin responses to the presence of antagonist were determined by repeating the cumulative addition procedure for bradykinin after the tissue has been exposed to the antagonist for 5 minutes. Three or four different concentrations of antagonist were studied sequentially in the same preparations. Responses were expressed as a percentage of the maximum […] elicited by bradykinin in the absence of antagonist. pA2 values were calculated by Schild analysis.
row,Structure (SMILES),Guinea Pig Ileum Contraction pA2
1,N=C(N)NCCC[C@@H](N)C(=O)N[C@@H](CCCNC(=N)N)C(=O)N1CCC2(CC1)C(=O)N(CC(=O)N[C@@H](CO)C(=O)N1Cc3ccccc3C[C@@H]1C(=O)N1[C@H](C(=O)N[C@@H](CCCNC(=N)N)C(=O)O)C[C@@H]3CCCC[C@@H]31)CN2C1CCCCC1 [HDArgArgX[c-C6 H11]CH2 COSerDTicOicArgOH],6.4
2,N=C(N)NCCC[C@@H](N)C(=O)N[C@@H](CCCNC(=N)N)C(=O)N1CCC2(CC1)C(=O)N(CC(=O)N[C@@H](CO)C(=O)N1Cc3ccccc3C[C@@H]1C(=O)N1[C@H](C(=O)N[C@@H](CCCNC(=N)N)C(=O)O)C[C@@H]3CCCC[C@@H]31)CN2c1ccccc1 [HDArgArgX[Ph]CH2 COSerDTicOicArgOH],6.7
